# Experimental data reported in publication PMC2918672 (Journal of molecular biology, 2010).
# Square brackets hold non-standard residues; d marks the D form. Ends that are not written are not given here. Sta = CC(C)C[C@H](N)[C@@H](O)CC(=O)O
# Tested on: L40I mutant HTLV-1 PR
# Assay: Inhibition of L40I mutant HTLV-1 PR, fluorescent substrate cleavage
# Assay type: biochemical, Human T-cell leukemia virus type 1 (HTLV-1)
# Conditions: test compound 50 nM; L40I mutant HTLV-1 PR 1 μg in 50 μL reaction mixture (as a dimer); substrate H-Lys([7-methoxycoumarin-4-yl]acetyl)-APQVL-(p-nitrophenylalanine)-VMHPL-OH; inverse percentage of remaining activity; single determination
substance,measurement,value
Ac-APQV[Sta]VMHP [Statine Inhibitor],Percent inhibition (%) at 50 nM,19%
